From PMC11562385 (RSC Chemical Biology, 2024)
Like-named read-outs stand apart in the source and are kept apart here. Square brackets hold non-standard residues; d marks the D form. Peptide text beside a SMILES is read from it. * marks the point of attachment. Methacryloyl = C=C(C)C(=O)*; Dab = NCC[C@H](N)C(=O)O

Target: T1, PD1:PDL1 interaction (Homo sapiens, UniProt Q15116)
T1 construct: purchased BPS Bioscience 72005
Experiment: PD1/PDL1 immunoblocking ELISA (BPS Bioscience kit cat # 72005)
Type: binding
Description: Original loops with Phe/Trp and their Gly-derived analogs. Experimental EC50 values from inhibitory dose–response curves. Error bars indicate the mean ± SD, (n = 3). […]
SDS -Pages, buffers, and stain were purchased from Fisher
8. Immunoblocking ELISA Assay
Peptide inhibitor stock solutions were prepared in the concentration range of approximately 1-5 mM in DMSO. […]
plate was then washed and blocked with blocking buffer for 1 h at room temperature. Inhibitor solutions (ranging from 0.01 to 100 μM) and a blank solution (DMSO/PBS buffer) were added to designated wells. To initiate the […]
inhibitor solutions. After a 2 h incubation at room temperature, the plate was washed and blocked again for 10 min. Streptavidin-HRP (diluted at 1 : 1000) was added and incubated for 1 h at room temperature with gentle shaking. The plate was washed and blocked once more for 10 min. ELISA ECL substrate was added, and the resulting chemoluminescence was immediately measured in a luminometer (FLUOstar OPTIMA, BMG Labtech).
The luminescence value of the blank was subtracted from all readings according to the manufacturer's

[1] = ELISA, mean of three independent experiments, read-out: EC50 Value

T1 sequence (Q15116 25-167 limits assumed): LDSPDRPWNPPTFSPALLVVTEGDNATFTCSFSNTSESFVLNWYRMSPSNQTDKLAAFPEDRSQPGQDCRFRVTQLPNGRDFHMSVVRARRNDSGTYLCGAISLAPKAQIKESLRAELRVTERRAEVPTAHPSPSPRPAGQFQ

SMILES | EC50 [1] [nM] | EC50 [nM]
C=C(C)C(=O)NCC[C@H](NC(=O)[C@H](CC(=O)O)NC(=O)[C@H](Cc1ccccc1)NC(=O)[C@H](CCCNC(=N)N)NC(=O)[C@H](Cc1ccc(O)cc1)NC(=O)[C@H](CC(=O)O)NC(=O)[C@H](CCCNC(=N)N)NC(=O)[C@H](CCCNC(=N)N)NC(=O)[C@H](C)NC(=O)[C@@H](NC(=O)[C@H](Cc1c[nH]c2ccccc12)NC(=O)[C@@H](N)CCCNC(=N)N)C(C)C)C(=O)NCC(=O)N[C@@H](Cc1ccccc1)C(=O)N[C@@H](CC(=O)O)C(=O)N[C@@H](Cc1ccc(O)cc1)C(=O)N[C@@H](Cc1c[nH]c2ccccc12)C(=O)N[C@H](C(=O)N[C@@H](Cc1c[nH]c2ccccc12)C(=O)N[C@@H](CCC(=O)O)C(=O)O)C(C)C [2cd] (H-RWVARRDYRFD[Dab](Methacryloyl)GFDYWVWE-OH) | 9870 | –
CSCC[C@H](NC(=O)[C@H](CC(=O)O)NC(=O)[C@H](Cc1ccccc1)NC(=O)[C@H](CCCNC(=N)N)NC(=O)[C@H](Cc1ccc(O)cc1)NC(=O)[C@H](CC(=O)O)NC(=O)[C@H](CCCNC(=N)N)NC(=O)[C@H](CCCNC(=N)N)NC(=O)[C@H](CCCCN)NC(=O)[C@@H](NC(=O)[C@H](Cc1c[nH]c2ccccc12)NC(=O)[C@@H](N)CCCNC(=N)N)C(C)C)C(=O)NCC(=O)N[C@@H](Cc1ccccc1)C(=O)N[C@@H](CC(=O)O)C(=O)N[C@@H](Cc1ccc(O)cc1)C(=O)N[C@@H](Cc1c[nH]c2ccccc12)C(=O)N[C@H](C(=O)N[C@@H](Cc1c[nH]c2ccccc12)C(=O)N[C@@H](CCC(=O)O)C(=O)O)C(C)C [2g] (H-RWVKRRDYRFDMGFDYWVWE-OH) | 78 | –
CSCC[C@H](NC(=O)CNC(=O)[C@H](CCC(=O)O)NC(=O)[C@H](CCCNC(=N)N)NC(=O)[C@H](C)NC(=O)[C@@H](NC(=O)[C@H](Cc1c[nH]c2ccccc12)NC(=O)[C@@H](N)CCCNC(=N)N)C(C)C)C(=O)N[C@@H](CC(N)=O)C(=O)N[C@H](C(=O)N[C@@H](CC(=O)O)C(=O)NCC(=O)N[C@@H](Cc1ccc(O)cc1)C(=O)N[C@@H](Cc1ccccc1)C(=O)N[C@@H](CC(=O)O)C(=O)N[C@@H](Cc1ccc(O)cc1)C(=O)N[C@@H](Cc1c[nH]c2ccccc12)C(=O)N[C@@H](Cc1cnc[nH]1)C(=O)N[C@@H](Cc1c[nH]c2ccccc12)C(=O)N[C@@H](CCC(=O)O)C(=O)O)[C@@H](C)O [2o] (H-RWVAREGMNTDGYFDYWHWE-OH) | – | 349

The next lines start with results.

EC50 [1] [nM] | SMILES | EC50 [nM]
144 | CC(C)C[C@H](NC(=O)[C@H](CCC(N)=O)NC(=O)[C@H](CCCNC(=N)N)NC(=O)[C@H](C)NC(=O)[C@@H](NC(=O)[C@H](Cc1c[nH]c2ccccc12)NC(=O)[C@@H](N)CCCNC(=N)N)C(C)C)C(=O)N[C@@H](Cc1ccc(O)cc1)C(=O)N[C@@H](Cc1ccc(O)cc1)C(=O)N[C@@H](Cc1ccccc1)C(=O)N[C@@H](CC(=O)O)C(=O)N[C@@H](Cc1ccc(O)cc1)C(=O)N[C@@H](Cc1c[nH]c2ccccc12)C(=O)N[C@H](C(=O)N[C@@H](Cc1c[nH]c2ccccc12)C(=O)N[C@@H](CCC(=O)O)C(=O)O)C(C)C [2m] (H-RWVARQLYYFDYWVWE-OH) | –
170 | CC[C@H](C)[C@H](NC(=O)[C@H](Cc1ccc(O)cc1)NC(=O)CNC(=O)[C@H](Cc1ccc(O)cc1)NC(=O)[C@H](CC(N)=O)NC(=O)CNC(=O)[C@H](Cc1ccc(O)cc1)NC(=O)[C@H](C)NC(=O)[C@H](CCCNC(=N)N)NC(=O)[C@H](C)NC(=O)[C@@H](NC(=O)[C@H](Cc1c[nH]c2ccccc12)NC(=O)[C@@H](N)CCCNC(=N)N)C(C)C)C(=O)N[C@@H](CC(=O)O)C(=O)N[C@H](C(=O)N[C@@H](Cc1c[nH]c2ccccc12)C(=O)N[C@@H](Cc1cnc[nH]1)C(=O)N[C@@H](Cc1c[nH]c2ccccc12)C(=O)N[C@@H](CCC(=O)O)C(=O)O)C(C)C [2r] (H-RWVARAYGNYGYIDVWHWE-OH) | –
170 | CSCC[C@H](NC(=O)[C@H](CC(=O)O)NC(=O)[C@H](Cc1ccccc1)NC(=O)[C@H](CCCNC(=N)N)NC(=O)[C@H](Cc1ccc(O)cc1)NC(=O)[C@H](CC(=O)O)NC(=O)[C@H](CCCNC(=N)N)NC(=O)[C@H](CCCNC(=N)N)NC(=O)[C@H](C)NC(=O)[C@@H](NC(=O)[C@H](Cc1c[nH]c2ccccc12)NC(=O)[C@@H](N)CCCNC(=N)N)C(C)C)C(=O)NCC(=O)N[C@@H](Cc1ccccc1)C(=O)N[C@@H](CC(N)=O)C(=O)N[C@@H](Cc1ccc(O)cc1)C(=O)N[C@@H](Cc1c[nH]c2ccccc12)C(=O)N[C@H](C(=O)N[C@@H](Cc1c[nH]c2ccccc12)C(=O)N[C@@H](CCC(=O)O)C(=O)O)C(C)C [2k] (H-RWVARRDYRFDMGFNYWVWE-OH) | –
230 | CC[C@H](C)[C@H](NC(=O)[C@H](Cc1ccc(O)cc1)NC(=O)[C@H](Cc1c[nH]c2ccccc12)NC(=O)[C@H](Cc1ccc(O)cc1)NC(=O)[C@H](CC(N)=O)NC(=O)CNC(=O)[C@H](Cc1ccc(O)cc1)NC(=O)[C@H](C)NC(=O)[C@H](CCCNC(=N)N)NC(=O)[C@H](C)NC(=O)[C@@H](NC(=O)[C@H](Cc1c[nH]c2ccccc12)NC(=O)[C@@H](N)CCCNC(=N)N)C(C)C)C(=O)N[C@@H](CC(=O)O)C(=O)N[C@H](C(=O)N[C@@H](Cc1c[nH]c2ccccc12)C(=O)N[C@@H](Cc1cnc[nH]1)C(=O)N[C@@H](Cc1c[nH]c2ccccc12)C(=O)N[C@@H](CCC(=O)O)C(=O)O)C(C)C [2q] (H-RWVARAYGNYWYIDVWHWE-OH) | –
